According to PubChem BioAssay AID1963979 (Molecular Pharmacology Branch, DTP, NCI, 2024):

System: 361931-004-R-J1-PDC multicell spheroid viability
Test: Anticancer human tumor 361931-004-R-J1-PDC patient-derived colon adenocarcinoma cell line growth inhibition [PI3K]
Settings: for viability, T/C: stronger effect = lower value
Method in brief: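 Targeted small molecules plus PI3K inhibitors, half-log dose series from Cmax (default top 10 microM), were applied to heterotypic spheroids of cancer cells with HUVEC and MSCs. Viability indicated growth inhibition.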

[1] = curve of first compound, second compound 0.0316 µM
[2] = curve of first compound, second compound 0.1 µM
[3] = curve of first compound, second compound 0.316 µM
[4] = curve of first compound, second compound 1 µM
[5] = second compound 0.0316 µM, first compound 0.0316 µM
[6] = second compound 0.0316 µM, first compound 0.1 µM
[7] = second compound 0.0316 µM, first compound 0.316 µM
[8] = second compound 0.0316 µM, first compound 1 µM
[9] = second compound 0.0316 µM, first compound 3.16 µM
[10] = second compound 0.0316 µM, first compound 10 µM
[11] = second compound 0.1 µM, first compound 0.0316 µM
[12] = second compound 0.1 µM, first compound 0.1 µM
[13] = second compound 0.1 µM, first compound 0.316 µM
[14] = second compound 0.1 µM, first compound 1 µM
[15] = second compound 0.1 µM, first compound 3.16 µM
[16] = second compound 0.1 µM, first compound 10 µM
[17] = second compound 0.316 µM, first compound 0.0316 µM
[18] = second compound 0.316 µM, first compound 0.1 µM
[19] = second compound 0.316 µM, first compound 0.316 µM
[20] = second compound 0.316 µM, first compound 1 µM
[21] = second compound 0.316 µM, first compound 3.16 µM
[22] = second compound 0.316 µM, first compound 10 µM
[23] = second compound 1 µM, first compound 0.0316 µM
[24] = second compound 1 µM, first compound 0.1 µM
[25] = second compound 1 µM, first compound 0.316 µM
[26] = second compound 1 µM, first compound 1 µM
[27] = second compound 1 µM, first compound 3.16 µM
[28] = second compound 1 µM, first compound 10 µM
[29] = curve of first compound, second compound 3.16 µM
[30] = curve of first compound, second compound 10 µM
[31] = second compound 3.16 µM, first compound 0.0316 µM
[32] = second compound 3.16 µM, first compound 0.1 µM
[33] = second compound 3.16 µM, first compound 0.316 µM
[34] = second compound 3.16 µM, first compound 1 µM
[35] = second compound 3.16 µM, first compound 3.16 µM
[36] = second compound 3.16 µM, first compound 10 µM
[37] = second compound 10 µM, first compound 0.0316 µM
[38] = second compound 10 µM, first compound 0.1 µM
[39] = second compound 10 µM, first compound 0.316 µM
[40] = second compound 10 µM, first compound 1 µM
[41] = second compound 10 µM, first compound 3.16 µM
[42] = second compound 10 µM, first compound 10 µM
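Further: spheroids exposed to agents for seven days before readout.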

## CC(Cn1ccc(-c2ccc(C#N)c(Cl)c2)n1)NC(=O)c1cc(C(C)O)[nH]n1 (centres undefined) + COc1c(OCCCN2CCOCC2)ccc2c3n(c(=NC(=O)c4cnc(N)nc4)nc12)CCN3
Curve of first compound, second compound 0.00316 µM
  IC50: > 10 µM
Curve of first compound, second compound 0.01 µM
  IC50: > 10 µM
[1]
  IC50: > 10 µM
[2]
  IC50: > 10 µM
[3]
  IC50: 0.0487 µM
[4]
  IC50: < 0.0316 µM
Second compound 0.00316 µM, first compound 0.0316 µM
  viability, T/C: 103%
Second compound 0.00316 µM, first compound 0.1 µM
  viability, T/C: 92.1%
Second compound 0.00316 µM, first compound 0.316 µM
  viability, T/C: 97.7%
Second compound 0.00316 µM, first compound 1 µM
  viability, T/C: 103%
Second compound 0.00316 µM, first compound 3.16 µM
  viability, T/C: 103%
Second compound 0.00316 µM, first compound 10 µM
  viability, T/C: 98%
Second compound 0.01 µM, first compound 0.0316 µM
  viability, T/C: 102%
Second compound 0.01 µM, first compound 0.1 µM
  viability, T/C: 102%
Second compound 0.01 µM, first compound 0.316 µM
  viability, T/C: 99.1%
Second compound 0.01 µM, first compound 1 µM
  viability, T/C: 93.5%
Second compound 0.01 µM, first compound 3.16 µM
  viability, T/C: 98.1%
Second compound 0.01 µM, first compound 10 µM
  viability, T/C: 95%
[5]
  viability, T/C: 95.1%
[6]
  viability, T/C: 94.7%
[7]
  viability, T/C: 83.5%
[8]
  viability, T/C: 93.4%
[9]
  viability, T/C: 89.4%
[10]
  viability, T/C: 78%
[11]
  viability, T/C: 81.5%
[12]
  viability, T/C: 83.2%
[13]
  viability, T/C: 76.8%
[14]
  viability, T/C: 70.3%
[15]
  viability, T/C: 78%
[16]
  viability, T/C: 62.1%
[17]
  viability, T/C: 51.4%
[18]
  viability, T/C: 49.5%
[19]
  viability, T/C: 47.6%
[20]
  viability, T/C: 44%
[21]
  viability, T/C: 42.4%
[22]
  viability, T/C: 30.6%
[23]
  viability, T/C: 20.5%
[24]
  viability, T/C: 19%
[25]
  viability, T/C: 15.8%
[26]
  viability, T/C: 19.5%
[27]
  viability, T/C: 16.7%
[28]
  viability, T/C: 11.9%

## Cn1ncnc1[C@H]1c2n[nH]c(=O)c3cc(F)cc(c23)N[C@@H]1c1ccc(F)cc1
Compound 0.000316 µM
  viability, T/C: 103% [middle of 4 runs]
Compound 0.001 µM
  viability, T/C: 99.7% [middle of 4 runs]
Compound 0.00316 µM
  viability, T/C: 96.5% [middle of 4 runs]
Compound 0.01 µM
  viability, T/C: 101% [middle of 4 runs]
Compound 0.0316 µM
  viability, T/C: 102% [middle of 4 runs]
Curve of compound
  IC50: > 0.1 µM

## C=CC(=O)N1CCN(c2nc(=O)n(-c3c(C)ccnc3C(C)C)c3nc(-c4c(O)cccc4F)c(F)cc23)C(C)C1 (centres undefined) + CC(Nc1ncnc2nc[nH]c12)c1cc2cccc(Cl)c2c(=O)n1-c1ccccc1
[1]
  IC50: > 10 µM
[2]
  IC50: > 10 µM
[3]
  IC50: > 10 µM
[4]
  IC50: > 10 µM
[29]
  IC50: > 10 µM
[30]
  IC50: > 10 µM
[5]
  viability, T/C: 102%
[6]
  viability, T/C: 102%
[7]
  viability, T/C: 104%
[8]
  viability, T/C: 104%
[9]
  viability, T/C: 102%
[10]
  viability, T/C: 99.3%
[11]
  viability, T/C: 100%
[12]
  viability, T/C: 95.8%
[13]
  viability, T/C: 103%
[14]
  viability, T/C: 111%
[15]
  viability, T/C: 104%
[16]
  viability, T/C: 92.5%
[17]
  viability, T/C: 105%
[18]
  viability, T/C: 108%
[19]
  viability, T/C: 103%
[20]
  viability, T/C: 98.3%
[21]
  viability, T/C: 107%
[22]
  viability, T/C: 86.8%
[23]
  viability, T/C: 98.7%
[24]
  viability, T/C: 109%
[25]
  viability, T/C: 103%
[26]
  viability, T/C: 106%
[27]
  viability, T/C: 102%
[28]
  viability, T/C: 90.5%
[31]
  viability, T/C: 100%
[32]
  viability, T/C: 103%
[33]
  viability, T/C: 99.9%
[34]
  viability, T/C: 104%
[35]
  viability, T/C: 106%
[36]
  viability, T/C: 89.9%
[37]
  viability, T/C: 104%
[38]
  viability, T/C: 108%
[39]
  viability, T/C: 98.2%
[40]
  viability, T/C: 100%
[41]
  viability, T/C: 101%
[42]
  viability, T/C: 93.6%

## Cn1ncnc1[C@H]1c2n[nH]c(=O)c3cc(F)cc(c23)N[C@@H]1c1ccc(F)cc1 + CC(Nc1ncnc2nc[nH]c12)c1cc2cccc(Cl)c2c(=O)n1-c1ccccc1
[1]
  IC50: > 0.1 µM
[2]
  IC50: > 0.1 µM
[3]
  IC50: > 0.1 µM
[4]
  IC50: > 0.1 µM
[29]
  IC50: > 0.1 µM
[30]
  IC50: > 0.1 µM
Second compound 0.0316 µM, first compound 0.000316 µM
  viability, T/C: 97.9%
Second compound 0.0316 µM, first compound 0.001 µM
  viability, T/C: 106%
Second compound 0.0316 µM, first compound 0.00316 µM
  viability, T/C: 102%
Second compound 0.0316 µM, first compound 0.01 µM
  viability, T/C: 99.1%
[5]
  viability, T/C: 107%
[6]
  viability, T/C: 106%
Second compound 0.1 µM, first compound 0.000316 µM
  viability, T/C: 110%
Second compound 0.1 µM, first compound 0.001 µM
  viability, T/C: 104%
Second compound 0.1 µM, first compound 0.00316 µM
  viability, T/C: 109%
Second compound 0.1 µM, first compound 0.01 µM
  viability, T/C: 103%
[11]
  viability, T/C: 101%
[12]
  viability, T/C: 108%
Second compound 0.316 µM, first compound 0.000316 µM
  viability, T/C: 107%
Second compound 0.316 µM, first compound 0.001 µM
  viability, T/C: 108%
Second compound 0.316 µM, first compound 0.00316 µM
  viability, T/C: 103%
Second compound 0.316 µM, first compound 0.01 µM
  viability, T/C: 97%
[17]
  viability, T/C: 105%
[18]
  viability, T/C: 100%
Second compound 1 µM, first compound 0.000316 µM
  viability, T/C: 99.5%
Second compound 1 µM, first compound 0.001 µM
  viability, T/C: 99%
Second compound 1 µM, first compound 0.00316 µM
  viability, T/C: 102%
Second compound 1 µM, first compound 0.01 µM
  viability, T/C: 95.2%
[23]
  viability, T/C: 97.8%
[24]
  viability, T/C: 95.2%
Second compound 3.16 µM, first compound 0.000316 µM
  viability, T/C: 102%
Second compound 3.16 µM, first compound 0.001 µM
  viability, T/C: 111%
Second compound 3.16 µM, first compound 0.00316 µM
  viability, T/C: 107%
Second compound 3.16 µM, first compound 0.01 µM
  viability, T/C: 101%
[31]
  viability, T/C: 102%
[32]
  viability, T/C: 102%
Second compound 10 µM, first compound 0.000316 µM
  viability, T/C: 102%
Second compound 10 µM, first compound 0.001 µM
  viability, T/C: 113%
Second compound 10 µM, first compound 0.00316 µM
  viability, T/C: 102%
Second compound 10 µM, first compound 0.01 µM
  viability, T/C: 100%
[37]
  viability, T/C: 102%
[38]
  viability, T/C: 98.5%

## CC1(C)CCC(Nc2ncc(C(F)(F)F)c(-c3c[nH]c4c(P(C)(C)=O)c(C#N)ccc34)n2)CN1 (centres undefined) + Cc1nc(NC(=O)N2CCCC2C(N)=O)sc1-c1ccnc(C(C)(C)C(F)(F)F)c1
[1]
  IC50: 4.5 µM
[2]
  IC50: 3.7 µM
[3]
  IC50: 4.24 µM
[4]
  IC50: 4.32 µM
[29]
  IC50: 2.72 µM
[30]
  IC50: < 0.0316 µM
[5]
  viability, T/C: 97.1%
[6]
  viability, T/C: 82.6%
[7]
  viability, T/C: 79.9%
[8]
  viability, T/C: 79.9%
[9]
  viability, T/C: 71.3%
[10]
  viability, T/C: 5.89%
[11]
  viability, T/C: 101%
[12]
  viability, T/C: 92.8%
[13]
  viability, T/C: 84.9%
[14]
  viability, T/C: 78.5%
[15]
  viability, T/C: 59.7%
[16]
  viability, T/C: 7.04%
[17]
  viability, T/C: 89.8%
[18]
  viability, T/C: 84.4%
[19]
  viability, T/C: 74.8%
[20]
  viability, T/C: 70.6%
[21]
  viability, T/C: 69.1%
[22]
  viability, T/C: 5.97%
[23]
  viability, T/C: 76.5%
[24]
  viability, T/C: 68.6%
[25]
  viability, T/C: 65.2%
[26]
  viability, T/C: 80.4%
[27]
  viability, T/C: 65.8%
[28]
  viability, T/C: 6.15%
[31]
  viability, T/C: 73.5%
[32]
  viability, T/C: 62.5%
[33]
  viability, T/C: 59.5%
[34]
  viability, T/C: 57.5%
[35]
  viability, T/C: 51.4%
[36]
  viability, T/C: 4.43%
[37]
  viability, T/C: 49.1%
[38]
  viability, T/C: 51.9%
[39]
  viability, T/C: 44.9%
[40]
  viability, T/C: 44.1%
[41]
  viability, T/C: 39.5%
[42]
  viability, T/C: 1.98%
